Where two headings read alike, the source gives them in different places.
Tested on: aphids
Experiment: Biological Test On Aphid (spray on cabbage leaf in Petri dish)
Type: in vivo
Details: for Number of dead aphids 1st: 1st replicate; for Number of dead aphids 1st / Number of dead aphids 2nd / Number of dead aphids 3rd / Number of dead aphids 4th: 20 aphids on cabbage leaf, 9.6% w/w pesticide reagent diluted 1000 times with water, sprayed, examined 24 hours later; for Number of dead aphids 2nd: 2nd replicate; for Number of dead aphids 3rd: 3rd replicate; for Number of dead aphids 4th: 4th replicate; for Number of dead aphids Average: average of four replicates; for pest or weed control at 96 µg/mL: read-out: Kill ratio
Protocol: The compound obtained from Example 1 was mixed with a solvent to form a 9.6% w/w pesticide reagent. An 8 cm×8 cm piece of clean cabbage leaf was placed on a lump of wet cotton in a Petri dish, and then 20 aphids were put on the cabbage leaf in the Petri dish. The thus formed pesticide reagent was diluted 1000 times with water to form a dilution that was then sprayed onto the cabbage leaf in the Petri dish with a predetermined amount. The number of dead aphids was examined 24 hours later, and the kill ratio was calculated. The test was carried out through four replicates.
Example 9 was repeated, except that the compound employed in Example 9 was replaced by the compound obtained from a respective one of the Examples 2 to 8.
Example 9 was repeated, except that the compound employed in Example 9 was replaced by imidachloprid, a heterocyclic compound of the formula disclosed in U.S. Pat. No. 4,742,060 that can be useful as pesticides.

[1] = 20 aphids, 9.6% w/w reagent diluted 1000 times, 24 hours
[2] = calculated from number of dead aphids, 20 aphids, 9.6% w/w reagent diluted 1000 times, 24 hours, four replicates

Structure (SMILES)	Number of dead aphids 1st	Number of dead aphids 2nd	Number of dead aphids 3rd	Number of dead aphids 4th	Number of dead aphids Average [1]	pest or weed control at 96 µg/mL [2] [%]	pest or weed control at 96 µg/mL (24 h) [%]	Kill ratio [2]
CNC(=O)Nc1nc2ccccc2n1Cc1csc(Cl)n1 [Example 16, 1-[1-(2-chloro-thiazol-4-ylmethyl)-1H-benzoimidazol-2-yl]-3-methyl-urea]	19	16	16	16	16.75	83.3	–	–
N#CNCc1ccc(Cl)nc1 [Example 9, 6-chloro-pyridin-3-ylmethyl-cyanamide]	19	19	20	20	19.25	–	96.2	–
CC(C)Oc1ccccc1OCc1ccc(Cl)nc1 [Example 11, 2-chloro-5-(2-isopropoxy-phenoxymethyl)-pyridine]	16	19	18	18	17.75	88.5	–	–
Clc1ccc(COc2cccc3ccccc23)cn1 [Example 13, 2-chloro-5-(naphthalen-1-yloxymethyl)-pyridine]	18	17	16	17	17	84.6	–	–
CS/C(C)=N/OCc1ccc(Cl)nc1 [Example 10, N-(6-chloro-pyridin-3-ylmethoxy)-thioacetimidic Acid Methyl Ester]	18	17	18	17	17.5	87.2	–	–
CC1(C)Cc2cccc(OCc3ccc(Cl)nc3)c2O1 [Example 14, 2-chloro-5-(2,2-dimethyl-2,3-dihydro-benzofuran-7-yloxymethyl)-pyridine]	17	16	18	16	16.75	83.3	–	–
CSc1c(C)cc(OCc2ccc(Cl)nc2)cc1C [Example 12, 2-chloro-5-(3,5-dimethyl-4-methylsulfanyl-phenoxymethyl)-pyridine]	20	19	19	19	19.25	96.2	–	–
O=[N+]([O-])/N=C1\NCCN1Cc1ccc(Cl)nc1 [Comparative Example 1, imidachloprid, reference compound]	17	17	18	17	17.25	–	–	85.90
CNC(=O)Nc1nc2ccccc2n1Cc1ccc(Cl)nc1 [Example 15, 1-[1-(6-chloro-pyridin-3-ylmethyl)-1H-benzoimidazol-2-yl]-3-mehtyl-urea]	17	17	16	16	16.5	–	82	–

Reference: patent US20030092739A1, “Heterocyclic compounds” (priority 2001, published 2003)
